# Assay results: PubChem BioAssay (NCI)
#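 Protocol summary: plate cells (96-well), add compound at 5 concentrations, incubate 48 h, interpolate endpoints linearly. Here, GI50 denotes the concentration required for 50% inhibition of growth. TGI is the concentration that stops growth completely.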
# Columns and labels:
# Experiment in all cases: DTP human tumour cell line panel, 48 h
# [1] = test system: HCT-15 colon
# [2] = test system: HOP-62 NSCLC
# [3] = test system: KM12 colon
# [4] = test system: NCI-H23 lung
# [5] = test system: K-562 leukemia
# [6] = test system: SK-MEL-2 melanoma
# [7] = test system: NCI-H522 lung
# [8] = test system: SNB-75 CNS
# [9] = test system: LOX IMVI melanoma
# [10] = test system: BT-549 breast
SMILES,TGI [1],TGI [2],TGI [3],TGI [4],TGI [5],TGI [6],TGI [7],TGI [8],TGI [9],GI50 [1],GI50 [2],GI50 [10],TGI [10],GI50 [3],GI50 [9],GI50 [4],GI50 [5],GI50 [7],GI50 [8],GI50 [6]
Cc1c(C(=O)/C=C/c2ccccc2[N+](=O)[O-])[n+](=O)c2ccccc2n1[O-],12.6 µM,32.2 µM,22 µM,17.8 µM,30.6 µM,24.1 µM,19.1 µM,30.3 µM,,,,,,,,,,,,
CCOC(=O)C1(Cc2ccc3ccccc3c2)CCCCC(=O)N1 (stereo unspecified),> 100 µM,> 100 µM,,> 100 µM,> 100 µM,,,9.22 µM,> 100 µM,,,,,,,,,,,
COc1ccc(Nc2nccc(N3CCN(c4c5ccc(Cl)cc5nc5ccc(OC)cc45)CC3)n2)cc1,> 100 µM,> 100 µM,> 100 µM,> 100 µM,> 100 µM,,5.09 µM,46.7 µM,> 100 µM,4.48 µM,38.7 µM,14.4 µM,> 100 µM,6.96 µM,6.11 µM,22.7 µM,3.06 µM,1.78 µM,5.61 µM,
O=S1CSSC1,,98.6 µM,55.8 µM,76.7 µM,80.7 µM,33.9 µM,25.9 µM,92.6 µM,20 µM,,,,,,,,,,,
CC1(C)CC(=O)C(CC2C(=O)c3ccccc3C2=O)C(=O)C1,> 100 µM,> 100 µM,> 100 µM,> 100 µM,> 100 µM,> 100 µM,> 100 µM,> 100 µM,> 100 µM,,,,,,,,,,,
COC(=O)C1C(=O)N(CCc2c[nH]c3ccccc23)C[C@@H]2CCC(=O)C[C@H]12 (stereo partly specified),> 100 µM,> 100 µM,> 100 µM,> 100 µM,> 100 µM,> 100 µM,> 100 µM,> 100 µM,> 100 µM,,,,,,,,,,,
Cc1ccc2oc(=O)c(-c3ccccc3)nc2c1,96.9 µM,> 100 µM,50.4 µM,90.7 µM,> 100 µM,43.8 µM,48.7 µM,> 100 µM,62.9 µM,,,,,,,,,,,
Cc1ccccc1/C=C/C(=O)c1ccccc1,> 10 µM,30.8 µM,48.6 µM,32.2 µM,49.7 µM,> 10 µM,46.8 µM,34.6 µM,,,,,,,,,,,,
CCCCCCC(C)CCCCCCCCCCC(=O)O (stereo unspecified),,> 100 µM,> 100 µM,> 100 µM,> 100 µM,> 100 µM,> 100 µM,> 100 µM,> 100 µM,,,,,,,,,,,
COc1ccc(C2Oc3c(c(O)cc4c3[C@H](c3ccc(O)cc3O)[C@H](O)C(c3ccc(O)c(O)c3)O4)C[C@@H]2O)cc1O (stereo partly specified),> 100 µM,> 100 µM,> 100 µM,> 100 µM,> 100 µM,> 100 µM,> 100 µM,> 100 µM,> 100 µM,,,,,,,,,,,
Cc1ccc(C)c(N2C(=O)C(=O)C(c3nc4ccccc4s3)C(=Nc3cccc4c(=O)[nH][nH]c(=O)c34)C2=O)c1 (stereo unspecified),> 100 µM,> 100 µM,> 100 µM,> 100 µM,> 100 µM,> 100 µM,,> 100 µM,> 100 µM,,,,,,,,,,,
CC1c2ccccc2N=C2SC(=S)N3CCN=C3N21 (stereo unspecified),> 100 µM,> 100 µM,> 100 µM,> 100 µM,> 100 µM,,> 100 µM,> 100 µM,> 100 µM,> 100 µM,> 100 µM,> 100 µM,> 100 µM,> 100 µM,> 100 µM,> 100 µM,> 100 µM,> 100 µM,> 100 µM,
C[C@]12C/C(=C/O)C(=O)C(O)=C1CC[C@@H]1C2CC[C@@]2(C)C1CC[C@@H]2O (stereo partly specified),61.5 µM,> 100 µM,76.9 µM,40.3 µM,82.2 µM,55.4 µM,32 µM,34.9 µM,30.9 µM,,,,,,,,,,,
c1ccc(-c2nc(N3CCCNCC3)c3nc(-c4ccccc4)oc3n2)cc1,2.89 µM,3.23 µM,3.38 µM,3.23 µM,,3.49 µM,,,,1.47 µM,1.58 µM,,,1.83 µM,,1.71 µM,,,,1.83 µM
Cc1c2ccncc2c(C)c2c1[nH]c1ccc(O)c(OCC(F)(F)F)c12,,20.9 µM,,19.4 µM,33.9 µM,22.9 µM,15.9 µM,21.1 µM,3.27 µM,,,,,,,,,,,
N.N.N.N.N.O=S(=O)([O-])S(=O)(=O)[O-].[Co+3],> 100 µM,,> 100 µM,> 100 µM,> 100 µM,> 100 µM,> 100 µM,> 100 µM,> 100 µM,> 100 µM,,,,> 100 µM,> 100 µM,> 100 µM,> 100 µM,> 100 µM,62.8 µM,> 100 µM
O=C1/C(=C/c2cccc([N+](=O)[O-])c2)Sc2scc(-c3ccc([N+](=O)[O-])cc3)[n+]21,33.6 µM,38.3 µM,33.3 µM,35.5 µM,,70 µM,,32.1 µM,46.3 µM,,,,28.8 µM,,,,,,,
CC(=O)[CH-]C(=O)c1ccccc1.CC(=O)[CH-]C(=O)c1ccccc1.CC1(C)OCC(C2OC3OC(C)(C)OC3C2[O-])O1.CC[O-].[Ti+4] (stereo unspecified),68 µM,31.1 µM,26.8 µM,30 µM,62.6 µM,27.8 µM,30.8 µM,,29.8 µM,25.9 µM,15.9 µM,,,11.4 µM,14.7 µM,15.8 µM,15.3 µM,16.5 µM,6.6 µM,12 µM
Cn1c(=O)nc2n(-c3ccc(Cl)c(C(F)(F)F)c3)c3ccccc3nc-2c1=O,> 100 µM,> 100 µM,> 100 µM,> 83.2 µM,> 100 µM,> 100 µM,73 µM,> 100 µM,> 100 µM,,,,,,,,,,,
O=C(CC1(O)C(=O)Nc2c(Cl)ccc(Cl)c21)c1ccc(Cl)cc1Cl (stereo unspecified),> 100 µM,59.5 µM,30.9 µM,43.3 µM,,48.9 µM,,46.9 µM,28.3 µM,,,,,,,,,,,
